Measurements as given in patent US20050130252A1, “Stabilized susceptibility tests of aerobic pathogens” (Wyeth Holdings Corporation, priority 2003, published 2005).
In brackets after ≈: the same amount, converted by molar mass. Read-outs that look alike come from different tables or passages of the source.

Assays:
[1] = HPLC analysis of early peak formation of tigecycline in water and MHB; assay type: physicochemical; details: stored overnight at RT
Description: To test the hypothesis, solutions of tigecycline were prepared in water, fresh MHB and aged MHB. The solutions were stored overnight at RT, then subjected to HPLC analysis to look for degradation of tigecycline. […] This confirmed that the formation of early peak of tigecycline was accelerated in the aged media.
In experiment 1 three experimental test samples were examined for early peak formation of tigecycline. In experiment 2 six experimental test samples were evaluated to determine the early peak of tigecycline which occurs in 24 hours. Results are as listed below:
Tigecycline at a concentration of 1 mg/mL in each of the above vehicles was prepared, assayed at time zero and 1 day @ RT.
The HPLC parameters are listed below: • HPLC column: Luna C18(2), 5 μm, 4.6×150 mm • Detection: UV @ 250 nm • Flow Rate: 1.5 mL/min • Injection volume=30 μL • Mobile Phase A: 6.8 g KH2PO4 in 950 mL water, pH to 6.2 with KOH, mixed with 50 mL acetonitrile • Mobile Phase B: 6.8 g KH2PO4 in 500 mL water, pH to 6.2 with KOH, mixed with 500 mL acetonitrile

P. aeruginosa ATCC 27853 = assay: Broth microdilution MIC; assay type: cell-based, Pseudomonas aeruginosa; details: Pseudomonas aeruginosa, ATCC27853, read-out: Minimal Inhibitory Concentration, P. aeruginosa ATCC 27853
Description: The process for preparing susceptibility test medium are the following steps: • a. Preparing Mueller Hinton Broth II medium by adding 22 grams powdered media to 1.0 liter distilled water; • b. Autoclaving (121° C., 15 psi, 15 minutes) and cooling the medium; • c. Adding Oxyrase® up to about 10% final volume and keeping at 35-37° C. in an incubator for 30 minutes; • d. Adding about 50 μL to each well of a 96 well microtiter plate; • e. Weighing drug and adding broth to drug to bring up to about (standard 128 μg/ml); • f. Adding 50 μL of the drug to the first column of the titer plate; • g. Diluting by two-fold serial diluting across or down the plate. • h. Preparing a Prompt™ inoculum at 10^8 CFU/ml; • i. Diluting inoculum 1:100 in the broth at […] in 9.9 ml (1:100) is 10^6 colony forming units (CFU) forming the adjusted inoculum; • j. Adding 50 μL of the adjusted inoculum to the wells of the microtiter plate; • k. Incubating the plates at 35-37° C. for 18-22 hours; and • l. Reading, with the unaided eye, the MIC.
(§1) The in vitro activities of tigecycline and control antibiotics were determined by the broth microdilution method as recommended by the NCCLS. (National Committee for Clinical Laboratory Standards, 2003. Methods for Dilution Antimicrobial Susceptibility Tests for Bacteria That Grow Aerobically; Approved Standards: M7-A6, Sixth ed, vol. 23., National Committee for Clinical Laboratory Standards Wayne, Pa.) was used for the standard procedures. MBH with 5% lysed horse blood was used for testing S. pneumoniae and Haemophilus Test Medium was used for testing H. influenzae. Oxyrase® (Oxyrase Inc, Mansfield, Ohio) was used according to the manufacturer's instructions by adding 1 ml of Oxyrase® to 50 ml of media. Media age studies were performed by preparing MHB in multiple flasks, then storing the media under various conditions. MICs were usually performed in duplicate on each day of testing. Storage under anaerobic conditions was conducted in an anaerobic chamber (MACS MG 1000, Don Whitley Scientific LTD). The pH of the media was determined by pH meter (Corning 430). A comparison of the in vitro activity of tigecycline by agar and broth dilution methodolgies with and without Oxyrase® against clinical isolates is shown in Table 1.

[2] = test system: clinical isolates and strains expressing various tetracycline resistance determinants; assay: Broth microdilution MIC, panel of clinical isolates and tetracycline-resistant strains taken together; assay type: cell-based; details: Table 5 panel
Description: as §1, with “1. […]” for “1.”

ATCC reference strains = assay: Broth microdilution MIC, reference strains taken together; assay type: cell-based
Description: The MICs for TGC were determined under various conditions by broth microdilution using NCCLS procedures. The MHB was stored at 2° C., room temperature, anaerobically and with the addition of Oxyrase® to determine the effect of various conditions. Time Kill kinetics was used to confirm MIC differences observed with the broth microdilution for aged and fresh media results.
as §1
To determine the effect of media age on the in vitro activity of tigecycline, MHB was prepared and stored at room temperature or 2° C. for 28 days. […] The aging of the media was slowed somewhat in the media stored at […] compared to the media stored at room temperature.

In the case of CN(C)c1cc(NC(=O)CNC(C)(C)C)c(O)c2c1C[C@H]1C[C@H]3[C@H](N(C)C)C(O)=C(C(N)=O)C(=O)[C@@]3(O)C(O)=C1C2=O [Tigecycline, tigecycline], the “Amount of the early peak (HPLC) relative to the amount in water (ratio)” value ([1]; tigecycline solution in aged MHB) was “about 35”, the “Amount of the early peak (HPLC) relative to the amount in water” value ([1]; tigecycline solution in fresh MHB) was “about 12 times” and the MIC (P. aeruginosa ATCC 27853; 2% Oxyrase) was 8 µg/mL (≈ 13.7 µM). For the same molecule, the MIC (P. aeruginosa ATCC 27853; No Oxyrase) was 16 µg/mL (≈ 27.3 µM), the “MICs in fresh media lower than in aged media” value [2] was 1 to 3 dilutions and the “Increase in the MICs over the four week period of media storage” value (ATCC reference strains; ATCC reference organisms, MHB stored 28 days, Table 4) was 3 to 4 dilution. The “MICs in aged media supplemented with Oxyrase compared with fresh media” value (ATCC reference strains; Table 3) was “nearly identical to those determined in fresh media”, the “MICs in fresh media supplemented with Oxyrase compared with unsupplemented fresh media” value (ATCC reference strains; Table 3) was “not significantly different” and the “MICs in commercially prepared media and media aged 2 weeks at RT under room air higher than in freshly prepared media” value (ATCC reference strains; Table 6) was 1-4 dilutions. The “MICs in media stored under anaerobic conditions compared with fresh media” value (ATCC reference strains; Table 6) was “nearly identical to the results obtained in fresh media”, the “More active in freshly prepared media than in commercially prepared and aged media” value (ATCC reference strains; reference strains) was 2 to 3 dilution and the MIC (ATCC reference strains; reference strains, addition of Oxyrase) was 0.06 to 0.25 µg/mL (≈ 0.102 to 0.427 µM). For the same molecule, the MIC (ATCC reference strains; reference strains, aged medium stored under anaerobic conditions prior to testing) was 0.03 to 0.12 µg/mL (≈ 0.0512 to 0.205 µM), the MIC (ATCC reference strains; reference strains, commercially prepared and aged (7 day old) media from powder) was 0.12 to 0.25 µg/mL (≈ 0.205 to 0.427 µM) and the MIC (ATCC reference strains; reference strains, freshly prepared media) was 0.03 to 0.12 µg/mL (≈ 0.0512 to 0.205 µM).
